Consider three compounds from patent US10105357B2, “Indication of antibiotic drugs for preparation of cancer inhibition pharmaceutical composition” (LAUNX BIOMEDICAL CO., LTD., priority 2014, dated 2018).

One may read the viability as a read-out of living cells in per cent, often relative to untreated cells.

For series [1], the system named is HCT116 (p53+) (Colorectal Carcinoma).
Series [2] concerns HL-60 (Acute Promyelocytic Leukemia). Kind of series: Cell viability analysis, leukemia HL-60. The format is cell-based, human.
Series [3] has as its system MKN-45 (Gastric Adenocarcinoma). The series can be described thus: Cell viability analysis, gastric cancer MKN-45. The format is cell-based, human. The note with it: for viability at 10 µM: Homo sapiens, MKN-45, 72 h.
The test system of series [4] is HI650 (Lung Adenocarcinoma). The series can be described thus: Cell viability analysis, lung cancer HI650. Format: cell-based, human.
The subject of series [5] is HeLa (Cervix Adenocarcinoma). Kind of series: Cell viability analysis, cervical cancer HeLa. The format is cell-based, human. To be noted: for viability at 10 µM: Homo sapiens, HeLa, 72 h.
Series [6] relates to TSGH-8301 (Urinary Bladder Carcinoma). The series can be described thus: Cell viability analysis, bladder cancer TSGH-8301. The format is cell-based, human. To be noted: for viability at 10 µM: Homo sapiens, 72 h.
For series [7], the system named is MCF7 (Mammary Gland, Adenocarcinoma). Kind of series: Cell viability analysis, breast cancer MCF7. Format: cell-based, human. The note with it: for viability at 10 µM: Homo sapiens, MCF7, 72 h.
Series [8] concerns A375 (Amelanotic Melanoma). Kind of series: Cell viability analysis, skin cancer A375. Format: cell-based, human. To be noted: for viability at 10 µM: Homo sapiens, A-375, 72 h.
The subject of series [9] is A549 (Lung Adenocarcinoma). The series can be described thus: Cell viability analysis, lung cancer A549. The format is cell-based, human. To be noted: for viability at 10 µM: Homo sapiens, A549, 72 h.
Series [10] deals with AGS (Gastric Adenocarcinoma). The series can be described thus: Cell viability analysis, gastric cancer AGS. Format: cell-based, human. The note with it: for viability at 10 µM: Homo sapiens, 72 h.
The subject of series [11] is HepG2 (Hepatocellular Carcinoma). Kind of series: Cell viability analysis, hepatic cancer HepG2. The format is cell-based, human. The note with it: for viability at 10 µM: Homo sapiens, HepG2, 72 h.
In series [12] the test system is PC3 (p53−) (Prostate Adenocarcinoma). The series can be described thus: Cell viability analysis, prostate cancer PC3. The format is cell-based, human. The note with it: for viability at 10 µM: Homo sapiens, 72 h.
Series [13] deals with LoVo (Colorectal Adenocarcinoma). The series can be described thus: Cell viability analysis, colon cancer LoVo. Format: cell-based, human. The note with it: for viability at 10 µM: Homo sapiens, LoVo, 72 h.
Series [14] deals with U-2OS. Kind of series: Cell viability analysis, osteosarcoma U-2OS. Format: cell-based, human. The note with it: Homo sapiens, U2OS, 72 h, read-out: The results of antibiotic drug inhibiting cancer cell lines (cell viability analysis), U2OS.
For series [15], the system named is T24. The series can be described thus: Cell viability analysis, bladder cancer T24. To be noted: Homo sapiens, T-24, 72 h, read-out: The results of antibiotic drug inhibiting cancer cell lines (cell viability analysis), T24. The format is cell-based, human.
The test system of series [16] is cancer cell lines. The series can be described thus: Cell viability analysis (WST-1) on cancer cell lines. To be noted: drug 10 μM, 72 hours, WST-1; Table 3. The format is cell-based, human.
In series [17] the test system is BCC (basal cell carcinoma). Kind of series: Cell viability analysis, skin cancer BCC. Format: cell-based, human. The note with it: Homo sapiens, 72 h, read-out: The results of antibiotic drug inhibiting cancer cell lines (cell viability analysis), BCC.
For series [18], the system named is AsPC-1. The series can be described thus: Cell viability analysis, pancreatic cancer AsPC-1. The format is cell-based, human. To be noted: Homo sapiens, ASPC1, 72 h, read-out: The results of antibiotic drug inhibiting cancer cell lines (cell viability analysis), AsPC-1.
The subject of series [19] is SAS (Tongue squamous cell carcinoma). The series can be described thus: Cell viability analysis, tongue cancer SAS. The format is cell-based, human. To be noted: Homo sapiens, 72 h, read-out: The results of antibiotic drug inhibiting cancer cell lines (cell viability analysis), SAS.
In series [20] the test system is Hep3B (hepatocellular carcinoma). Kind of series: Cell viability analysis, hepatic cancer Hep3B. Format: cell-based, human. The note with it: Homo sapiens, Hep3B, 72 h, read-out: The results of antibiotic drug inhibiting cancer cell lines (cell viability analysis), Hep3B.
Series [21] relates to BxPC-3. Kind of series: Cell viability analysis, pancreatic cancer BxPC-3. To be noted: Homo sapiens, BXPC-3, 72 h, read-out: The results of antibiotic drug inhibiting cancer cell lines (cell viability analysis), BxPC-3. The format is cell-based, human.
The subject of series [22] is TOV-21G. Kind of series: Cell viability analysis, ovarian cancer TOV-21G. Format: cell-based, human. The note with it: Homo sapiens, TOV21G, 72 h, read-out: The results of antibiotic drug inhibiting cancer cell lines (cell viability analysis), TOV-21G.
In series [23] the test system is MDA-MB-231 (Mammary Gland, Adenocarcinoma). The series can be described thus: Cell viability analysis, breast cancer MDA-MB-231. Format: cell-based, human. To be noted: Homo sapiens, MDA-MB-231, 72 h, read-out: The results of antibiotic drug inhibiting cancer cell lines (cell viability analysis), MDA-MB231.
Series [24] has as its system C-33A (Cervical carcinoma). The series can be described thus: Cell viability analysis, cervical cancer C-33A. The note with it: Homo sapiens, C-33-A, 72 h, read-out: The results of antibiotic drug inhibiting cancer cell lines (cell viability analysis), C-33A. Format: cell-based, human.
Series [25] deals with NIH: OVCAR-3. Kind of series: Cell viability analysis, ovarian cancer NIH: OVCAR-3. The note with it: Homo sapiens, OVCAR-3, 72 h, read-out: The results of antibiotic drug inhibiting cancer cell lines (cell viability analysis), NIH-OVCAR-3. The format is cell-based, human.
The test system of series [26] is 786-O (Renal adenocarcinoma). The series can be described thus: Cell viability analysis, renal cancer 786-O. Format: cell-based, human. The note with it: Homo sapiens, 786-0, 72 h, read-out: The results of antibiotic drug inhibiting cancer cell lines (cell viability analysis), 786-O.
Setting [27] is: drug 10 μM, 72 hours, WST-1, OD450 nm.

Where two headings read alike, the source gives them in different places.

Regarding `CCn1cc(C(=O)O)c(=O)c2cc(F)c(N3CCNC(C)C3)c(F)c21.Cl` (stereo not shown) [Lomefloxacin HCl (Maxaquin)], the “cell viability (survival rate), HCT116” value in series [1] stood at 113.4. Besides, the “cell viability (survival rate), HL-60” value in series [2] is reported as 96.5. Besides, in [3], the “cell viability (survival rate), MKN-45” value came to 92.7. Further, in series [4], the “cell viability (survival rate), H1650” value is 56.6. Also, the “cell viability (survival rate), HeLa” value in [5] is on record as 135.0. For the same compound, the “cell viability (survival rate), TSGH” value in [6] is given as 61.2. For the same compound, the “cell viability (survival rate), MCF7” value in series [7] turned out to be 83.5. Moreover, the “cell viability (survival rate), A375” value in series [8] was determined as 87.7. Also, the “cell viability (survival rate), A549” value in series [9] is recorded as 70.7. The “cell viability (survival rate), AGS” value in [10] is reported as 77.5. Further, in series [11], the “cell viability (survival rate), HepG2” value is 90.5. Also, the “cell viability (survival rate), PC3” value in [12] is 63.3. Besides, the “cell viability (survival rate), LoVo” value in series [13] was 88.9.

As to `O=C([O-])C(O)[C@H](O)[C@@H](O)[C@H](O)[C@H](O)CO.O=C([O-])C(O)[C@H](O)[C@@H](O)[C@H](O)[C@H](O)CO.[Ca+2]` (stereo partly shown) [Calcium Gluceptate], the “cell viability (survival rate), HCT116” value in [1] (drug 10 μM, 72 hours, WST-1, OD450 nm, head HCT116 / HCT116(WT)) is recorded as 74.09. Also, in series [2] (setting [27]), the “cell viability (survival rate), HL-60” value is 113.4525. For the same compound, the “cell viability (survival rate), MKN-45” value in series [3] (setting [27]) is given as 74.23. For the same compound, in [4] (setting [27]), the “cell viability (survival rate), H1650” value was 54.25. Further, the “cell viability (survival rate), HeLa” value in series [5] (setting [27]) was found to be 43.93. In addition, the “cell viability (survival rate), TSGH” value in series [6] (setting [27]) stood at 33.81. Moreover, the “cell viability (survival rate), MCF7” value in series [7] (setting [27]) stood at 34.24. Further, in [8] (setting [27]), the “cell viability (survival rate), A375” value is 36.97. Further, in series [9] (setting [27]), the “cell viability (survival rate), A549” value is recorded as 24.91. Moreover, in series [10] (setting [27]), the “cell viability (survival rate), AGS” value turned out to be 79.67. In addition, the “cell viability (survival rate), HepG2” value in series [11] (setting [27]) was determined as 76.88. The “cell viability (survival rate), PC3” value in series [12] (setting [27]) is 37.91. The “cell viability (survival rate), LoVo” value in [13] (setting [27]) came out at 55.29.

For `CO[C@H]1/C=C/O[C@@]2(C)Oc3c(C)c(O)c4c(O)c(c(/C=N/N5CCN(C6CCCC6)CC5)c(O)c4c3C2=O)NC(=O)/C(C)=C\C=C\[C@H](C)[C@H](O)[C@@H](C)[C@@H](O)[C@@H](C)[C@H](OC(C)=O)[C@@H]1C` [Rifapentine (Priftin), Rifapentine], the viability at 10 µM in [2] (Homo sapiens, HL-60, 72 h, read-out: cell viability (survival rate), HL-60, drug 10 μM, 72 hours, WST-1, OD450 nm) was 99.1%; in series [14] it was 87.2%; in series [15], 86.3%; in series [3] (read-out: The results of antibiotic drug inhibiting cancer cell lines (cell viability analysis), MKN-45, MKN-45, repeated experiment), 98.6%; in [3] (read-out: cell viability (survival rate), MKN-45, drug 10 μM, 72 hours, WST-1, OD450 nm), 58.6%; in [17], 85.7%. Besides, the viability at 10 µM in series [4] (Homo sapiens, NCI-H1650, 72 h, read-out: The results of antibiotic drug inhibiting cancer cell lines (cell viability analysis), H1650, H1650, repeated experiment) stood at 69%; in [5] (read-out: The results of antibiotic drug inhibiting cancer cell lines (cell viability analysis), HeLa, repeated experiment), 104%; in series [5] (read-out: cell viability (survival rate), HeLa, drug 10 μM, 72 hours, WST-1, OD450 nm), 56.5%; in series [6] (read-out: The results of antibiotic drug inhibiting cancer cell lines (cell viability analysis), TSGH-8301, TSGH-8301, repeated experiment), 94.7%; in series [6] (read-out: cell viability (survival rate), TSGH, drug 10 μM, 72 hours, WST-1, OD450 nm), 99.2%; in series [7] (read-out: The results of antibiotic drug inhibiting cancer cell lines (cell viability analysis), MCF-7, MCF-7, repeated experiment), 84.1%. Besides, the viability at 10 µM in series [7] (read-out: cell viability (survival rate), MCF7, drug 10 μM, 72 hours, WST-1, OD450 nm) was found to be 46.2%; in [18], 78.2%; in series [8] (read-out: The results of antibiotic drug inhibiting cancer cell lines (cell viability analysis), A375, A375, repeated experiment) it was 98.2%; in series [8] (read-out: cell viability (survival rate), A375, drug 10 μM, 72 hours, WST-1, OD450 nm), 77.7%; in series [19] it was 85.4%; in series [20], 110%. The viability at 10 µM in series [9] (read-out: The results of antibiotic drug inhibiting cancer cell lines (cell viability analysis), A549, A549, repeated experiment) is 87.4%; in [9] (read-out: cell viability (survival rate), A549, drug 10 μM, 72 hours, WST-1, OD450 nm) it was 47.4%; in [21], 74%; in series [22] it was 79.7%; in series [23], 93.3%; in series [24], 91.7%. Further, the viability at 10 µM is 76.4% in [10] (read-out: The results of antibiotic drug inhibiting cancer cell lines (cell viability analysis), AGS, repeated experiment); 63.7% in series [10] (read-out: cell viability (survival rate), AGS, drug 10 μM, 72 hours, WST-1, OD450 nm); 104% in series [25]; 112% in series [11] (read-out: The results of antibiotic drug inhibiting cancer cell lines (cell viability analysis), HepG2, HepG2, repeated experiment); 102% in series [11] (read-out: cell viability (survival rate), HepG2, drug 10 μM, 72 hours, WST-1, OD450 nm); 85.9% in series [26]. In addition, the viability at 10 µM in [12] (read-out: The results of antibiotic drug inhibiting cancer cell lines (cell viability analysis), PC-3, PC-3, repeated experiment) amounted to 98.4%; in series [12] (read-out: cell viability (survival rate), PC3, drug 10 μM, 72 hours, WST-1, OD450 nm), 99.1%; in series [13] (read-out: The results of antibiotic drug inhibiting cancer cell lines (cell viability analysis), LoVo, repeated experiment), 93.5%; in series [13] (read-out: cell viability (survival rate), LoVo, drug 10 μM, 72 hours, WST-1, OD450 nm) it was 92.3%. Also, the “inhibition effect on different cancer cell lines” value in series [16] is reported as “significant inhibition effect”.
